Consider three molecules from patent US10251937B2, “Retro-inverso analogs of spadin display increased antidepressant effects” (MEDINCELL, priority 2014, dated 2019).

In test [1] the test system is C57Bl/6J mice. Kind of test: Forced Swimming Test (FST) in naive mice. The format is in vivo. As to the method: Naïve male C57Bl/6J mice from 7 to 9 weeks old were used in all experiments (Janvier laboratory). Mice were housed 10 animals per cage under a 12-h light/12-h dark cycle (light on at 8:00 am), in a ventilated room at a temperature of 22±1° C. Animals had free access to water and food (A03; SAFE, Augy, France). All experiments were conducted according to policies on the care and use of laboratory animals of the Society for Neuroscience, and also with respect to national laws on animal use. The local Ethics Committee (CIEPAL) approved the experiments.
(§1) Stock solutions were prepared of 2 mg/mL (10^-3M) in distilled water, and before injection spadin solution was diluted in NaCl 0.9% to obtain the different concentrations used for treatments. Corticosterone (Sigma-Aldrich, France) was dissolved in drinking water at the concentration of 3.5 mg/L in the presence of 4.5 g/L of beta-cyclodextrin. […] Fluoxetine (Sigma-Aldrich, France) was dissolved in drinking water at the dose of 80 mg/L and administered during 21 days. For i.p. administration, fluoxetine (TEVA Santé, France) was dissolved in NaCl 0.9% at a concentration of 0.75 mg/mL. The amount injected was 3 mg/kg. Spadin and analogues were administered by i.v. injection. For acute treatment, drugs were administered in a single 100 μL bolus 30 min prior to the beginning of the behavioral tests. For subchronic treatment drugs were injected during 4 consecutive days and behavioral tests were performed on day 5, without additional injection.
The animals were individually placed in a non-escapable cylinder (height 30 cm, diameter 15 cm) filled with 15 cm-water at 22±1° C. The trial was conducted for 6 min. The total period of immobility was manually measured during the last 4 min of the test. A mouse was considered immobile when it remained floating with only slight movements to keep its head above water.

Test [2] deals with C57Bl/6J mice. Kind of test: Novelty Suppressed Feeding (NSF) test. To be noted: 10 μg/kg i.v. daily for 4 days, test on day 5. The test is classed as in vivo. As to the method:
as §1
The NSF paradigm is a two day test protocol. Day one, mice were deprived from food. Day two mice were placed in a highly brightly lit area, in a plastic box (45×45×20 cm), with a floor covered with wooden bedding. The test was carried out during a 10 min period; during this time the latency to eat was measured. During the test a single pellet of food was placed in the center of the box, on a white platform.

Test [3] relates to dentate gyrus of the mouse hippocampus. Description: Hippocampal neurogenesis, BrdU-positive cell count. The test is classed as in vivo. To be noted: 4 day treatment, 10 μg/kg i.v. The procedure:
One day after the injections of 5-bromo-2-deoxyuridine (BrdU), 12 mg per animal divided in four bolus of 100 μl injected every two hours with spadin or Analog 3 (SEQ ID NO:4) and Analog 8 (SEQ ID NO:9), mice were anesthetized with isoflurane and transcardially perfused with 20 mL of 0.9% NaCl followed by 20 mL paraformaldehyde in 4%/NaCl at a concentration of 0.9%. By using a vibratome (Leica) brains were cut in 40 μm sections, throughout the entire hippocampus. Eight slices, from bregma 3.3 to bregma 5.3, were retained to process the BrdU immunohistochemistry as previously described (Heurteaux, C. et al. Deletion of the background potassium channel TREK-1 results in a depression-resistant phenotype. Nat Neurosci 9, 1134, (2006)). For each BrdU labeling, slices were first incubated with a mouse monoclonal anti-BrdU antibody (1/8000, Becton Dinckinson). […]
It was previously shown that a 4-days subchronic treatment with spadin increased the hippocampal neurogenesis (Mazella, J. et al. Spadin, a sortilin-derived peptide, targeting rodent TREK-1 channels: a new concept in the antidepressant drug design. PLoS Biol 8, e1000355, (2010)). […] The neurogenesis in the dentate gyrus of the mouse hippocampus was analyzed by counting the number of progenitor cells that incorporated the DNA synthesis marker 5-bromo-2′deoxyuridine (BrdU).

The next test has as its system dogs. To be noted: dogs with separation anxiety; cited from earlier work.
Test [4] concerns the target T1, human two-pore domain potassium channel TREK-1 (Homo sapiens, UniProt O95069).
T1 sequence (O95069 1-426): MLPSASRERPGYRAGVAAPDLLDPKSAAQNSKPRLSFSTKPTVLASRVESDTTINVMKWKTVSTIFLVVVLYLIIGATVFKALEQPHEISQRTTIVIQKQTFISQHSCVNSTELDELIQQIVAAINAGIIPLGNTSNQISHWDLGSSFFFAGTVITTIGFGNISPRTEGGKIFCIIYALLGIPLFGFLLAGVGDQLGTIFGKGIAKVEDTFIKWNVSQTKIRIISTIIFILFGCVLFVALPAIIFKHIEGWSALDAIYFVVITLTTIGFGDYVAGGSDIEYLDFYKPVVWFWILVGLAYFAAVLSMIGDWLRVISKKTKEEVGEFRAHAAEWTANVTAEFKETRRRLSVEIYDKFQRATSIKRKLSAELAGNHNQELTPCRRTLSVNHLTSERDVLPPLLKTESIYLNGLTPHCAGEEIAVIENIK
The following applies: Kennard et al; cited from earlier work.

A further test deals with T2, TREK-1 channels (Homo sapiens, UniProt O95069).
T2 construct: expressed in transfected cells
T2 sequence (O95069 1-426): T1 sequence (O95069 1-426)
Description: TREK-1 current inhibition, whole cell patch clamp on h-TREK-1/HEK cell line. The format is cell-based. The procedure: The human-TREK-1/HEK293 cell line (h-TREK-1/HEK) (Moha ou Maati, H. et al. (2011). PloS one, 6 (10), e25602) and HEK-IKS cell line (Ducroq, J. et al, (2010) Br J Pharmacol, 159(1):93-101) were grown in the presence of 0.5 mg/mL G418 in Dulbecco's modified Eagle's medium supplemented with 10% (v/v) heat inactivated fetal bovine serum containing 1% (v/v) penicillin/streptomycin in an atmosphere of 95% air/5% CO2.
All electrophysiological experiments were performed on h-TREK-1/HEK cells seeded at a density of 20 000 cells/35-mm dish after 2-6 days of culture. All electrophysiological recordings were performed in whole cell configuration of the patch clamp technique. Each current was evaluated by using a RK 400 patch clamp amplifier (Axon Instrument, USA), low-pass filtered at 3 kHz and digitized at 10 kHz using a 12-bit analog-to-digital converter digidata (1322 series, Axon Instrument, USA). All current amplitudes are expressed in current densities. Results were expressed as mean±standard error of the mean (SEM). […] The bath solution contained 150 mM NaCl, 5 mM KCl, 3 mM MgCl2, 1 mM CaCl2 and 10 mM HEPES adjusted to pH 7.4 with NaOH. The pipette solution contained 155 mM KCl, 3 mM MgCl2, 5 mM EGTA and 10 mM HEPES adjusted to pH 7.2 with KOH. TREK-1 currents were evaluated in the presence of a cocktail of potassium channel inhibitors (K+ blockers: 3 mM 4-aminopyridine (4-AP), 10 mM tetraethylammonium (TEA), 10 μM glibenclamide, 100 nM apamin and 50 nM charybdotoxin). All experiments were performed at room temperature (21-22° c.). Stimulation protocols and data acquisition were carried out using a microcomputer (Dell Pentium) with a commercial software and hardware (pClamp 8.2). Currents were recorded by voltage clamp steps to membrane potentials of −100 to +60 mV in 20 mV steps applied from a holding potential of −80 mV. Duration of depolarization pulses were […], and the pulse cycling rate was 5 sec. TREK-1 current amplitudes were evaluated at the end of the stimulation pulses. Cells were continuously superfused with a microperfusion system. Inhibitory effects of spadin and analogs were performed on arachidonic acid pre-activated TREK-1 currents. Spadin and analogs were tested at the unique dose of 100 nM. For both Analog 3 (SEQ ID:4) and Analog 8 (SEQ ID:9) concentration-dependant inhibitions were performed by applying concentrations ranging between 1 nM to 1 μM. IKS currents were activated by voltage clamp steps of membrane potentials from −100 to +100 mV in 20 mV steps applied from a holding potential of −80 mV. Tail currents were generated by repolarization to −40 mV. Duration of both depolarization and repolarization pulses were 2.4 s, and the pulse cycling rate was 10 s. IKR currents were activated by voltage clamp steps of membrane potentials from −100 to +100 mV in 10 mV steps applied from a holding potential of […] and tail currents were generated by a repolarization to […]. Duration of both depolarization and repolarization pulses were 1 s, and the pulse cycling rate was 5 s. The amplitudes of IKS and IKR currents were calculated at both the end of the first pulse and the peak of the tail pulse.
Neuropharmacology 62, 278, (2012)) was used as reference.
(In general: The patch-clamp technique gives a direct electrical read-out from membranes.)

For test [5], the system named is C57Bl/6J mice. Kind of test: Forced Swimming Test (FST) in naive mice. The test is classed as in vivo. The following applies: acute i.c.v., 50 ng/kg (FIG. 9B), 30 minutes.

Square brackets hold non-standard residues; d marks the D form. Ends that are not written are not given here. Peptide text beside a SMILES is read from it.

“APLPRWSGPIGVSWGLR [spadin, APLPRWSGPIGVSWGLR]”: the “immobility time, FST, acute treatment” value in the test with C57Bl/6J mice [1] (10 μg/kg acute i.v., measured 30 minutes after injection, n=10) was found to be 107.40 ± 5.05 s. Moreover, the “immobility time, FST, subchronic treatment” value with C57Bl/6J mice [1] (10 μg/kg i.v. once a day for 4 days, test on day 5) was determined as 123.70 ± 7.16 s. For the same molecule, the “time of immobility, FST time course” value came out at 113.2 ± 5.0 s in the test with C57Bl/6J mice [1] (3 h after injection (order of listing)); 150.8 ± 6.5 s in the test on C57Bl/6J mice [1] (7 h after injection (order of listing)); 175.3 ± 7.5 s in the test with C57Bl/6J mice [1] (17 h after injection (order of listing)); 102.4 ± 6.2 s in the test on C57Bl/6J mice [1] (first (initial) time point after injection, time not given). Further, the “remaining efficiency, % of the initial efficacy, FST” value worked out at 84% in the test on C57Bl/6J mice [1] (3 h after the injection) and 30% with C57Bl/6J mice [1] (seven hours after the injection). For the same molecule, in the test on C57Bl/6J mice [1] (after 17 h), the “reduction of immobility times, FST” value is “no reduction in the immobility times”. Besides, the “latency to feed, NSF” value with C57Bl/6J mice [2] was determined as 151.11 ± 17.70 s. In addition, in test [3], the “number of BrdU-positive cells in the subgranular zone compared to saline” value is “significantly increased”.
In the case of `CNCCC(Oc1ccc(C(F)(F)F)cc1)c1ccccc1` (stereo not shown) [fluoxetine], the “dogs less depressive as indicated by better behavior” value in the test on dogs is on record as 73%. Moreover, the “effect on human TREK-1 channel” value in test [4] is reported as “inhibit”.
As usually defined, the IC50 is the concentration that gives 50% inhibition. Read a low IC50 as higher potency. With `CC[C@@H](C)[C@H]1NC(=O)CNC(=O)[C@@H](C(C)C)NC(=O)[C@@H](CO)NC(=O)[C@@H](Cc2c[nH]c3ccccc23)NC(=O)CNC(=O)[C@@H](CC(C)C)NC(=O)[C@@H](CCCNC(=N)N)NC(=O)[C@@H](C)NC(=O)[C@H]2CCCN2C(=O)[C@@H](CC(C)C)NC(=O)[C@H]2CCCN2C(=O)[C@@H](CCCNC(=N)N)NC(=O)[C@@H](Cc2c[nH]c3ccccc23)NC(=O)[C@@H](CO)NC(=O)CNC(=O)[C@H]2CCCN2C1=O` [Analog 15, c(rlGwsvGipGswrplpa)] (cyclo([dR][dL]G[dW][dS][dV]G[dI][dP]G[dS][dW][dR][dP][dL][dP][dA])), the “blockade effect on TREK-1 channel activity compared to spadin” value at TREK-1 channels (100 nM, n=10 to 12) is on record as “increased blockade effect”. This molecule had an IC50 against TREK-1 channels (h-TREK-1/HEK cells, measured at 0 mV (FIG. 8F)) of 0.04 nM. For the same molecule, in the test with C57Bl/6J mice [5], the “activity in FST after i.c.v. injection” value is reported as “active”.
